Results as given in a compilation of properties of binary mixtures (doi:10.1021/je00020a016).

Test: excess molar enthalpy (molar enthalpy of mixing); xn = mol fraction of the nth substance listed
Settings: 100 kPa

CCOC(=O)OCC + CC1COC(=O)O1
excess molar enthalpy [kcal/mol]
Settings	298.15 K	313.15 K
x2 = 0.0482	–	0.0351
x2 = 0.0668	0.033	–
x2 = 0.0919	–	0.0559
x2 = 0.1066	0.0504	–
x2 = 0.1518	0.0631	–
x2 = 0.1528	–	0.0698
x2 = 0.1926	0.07	–
x2 = 0.1933	–	0.0755
x2 = 0.2623	0.0784	–
x2 = 0.2644	–	0.0846
x2 = 0.3231	0.0593	–
x2 = 0.4172	0.0605	–
x2 = 0.4183	–	0.0915
x2 = 0.4884	0.0822	–
x2 = 0.4895	–	0.0894
x2 = 0.5888	0.0765	–
x2 = 0.6824	0.066	–
x2 = 0.742	0.0583	0.0607
x2 = 0.8118	0.0452	–
x2 = 0.8519	0.0373	0.0387
x2 = 0.8962	0.0263	0.0284
x2 = 0.9452	0.0139	0.0151
x2 = 0.9718	0.00765	0.00789

CC1COC(=O)O1 (stereo not drawn) + COC(=O)OC
Settings	excess molar enthalpy [kcal/mol]
298.15 K, x1 = 0.0474	0.0131
298.15 K, x1 = 0.0905	0.0203
298.15 K, x1 = 0.1106	0.0227
298.15 K, x1 = 0.1428	0.0253
298.15 K, x1 = 0.1993	0.0272
298.15 K, x1 = 0.2491	0.0272
298.15 K, x1 = 0.3989	0.0244
298.15 K, x1 = 0.4988	0.0217
298.15 K, x1 = 0.5989	0.0184
298.15 K, x1 = 0.6656	0.0158
298.15 K, x1 = 0.7491	0.0127
298.15 K, x1 = 0.7993	0.0103
298.15 K, x1 = 0.8566	0.00741
298.15 K, x1 = 0.8884	0.0055
298.15 K, x1 = 0.9228	0.00382
298.15 K, x1 = 0.9598	0.00191
313.15 K, x1 = 0.0658	0.0217
313.15 K, x1 = 0.1429	0.0284
313.15 K, x1 = 0.2001	0.0296
313.15 K, x1 = 0.2502	0.0294
313.15 K, x1 = 0.3335	0.0284
313.15 K, x1 = 0.4002	0.0268
313.15 K, x1 = 0.5002	0.0232
313.15 K, x1 = 0.6003	0.0191
313.15 K, x1 = 0.6669	0.0167
313.15 K, x1 = 0.7502	0.0129
313.15 K, x1 = 0.8001	0.0108
313.15 K, x1 = 0.8563	0.00813
313.15 K, x1 = 0.889	0.00598
313.15 K, x1 = 0.96	0.00215

CCOC(=O)OCC + COC(=O)OC
excess molar enthalpy [kcal/mol]
Settings	298.15 K	313.15 K
x2 = 0.0565	0.00765	0.00645
x2 = 0.107	0.0148	–
x2 = 0.1522	–	0.0179
x2 = 0.1932	–	0.0213
x2 = 0.1934	0.0234	–
x2 = 0.2643	–	0.0272
x2 = 0.3241	0.0349	–
x2 = 0.4181	–	0.0368
x2 = 0.4892	–	0.0387
x2 = 0.5896	–	0.0387
x2 = 0.6831	–	0.0349
x2 = 0.6834	0.0373	–
x2 = 0.7418	–	0.0315
x2 = 0.7421	0.0335	–
x2 = 0.8117	–	0.0265
x2 = 0.8119	0.027	–
x2 = 0.8518	–	0.021
x2 = 0.8962	0.017	–
x2 = 0.8995	–	0.0158
x2 = 0.92	–	0.0124
x2 = 0.9201	0.0141	–
x2 = 0.9453	0.00932	–
x2 = 0.9718	–	0.00454
x2 = 0.9719	0.00478	–
